According to article PMC13165350, “In Vitro Antiproliferative Effects of Benzothiazole-Based Aminosquaraine Dyes Against Cancer Cell Lines” (Molecules, 2026):

Test system: MCF-7 cells (breast adenocarcinoma)
Test: cells
Format: cell-based
Settings: Homo sapiens, MCF7; MTT, 72 h, 0.01–50 µM, dark conditions
Description: The cytotoxic effects of the aminosquaraines 1–8 were evaluated in breast (MCF-7 and T47D) and prostate (LNCaP) cancer cell lines using the MTT assay, as previously described [17]. […] Normal human dermal fibroblasts (NHDF) were included as a non-cancer model to assess tumor selectivity.
In a preliminary screening, cells were exposed to a single concentration (30 µM) of each dye for 72 h to assess metabolic activity.
The studied compounds were dissolved in dimethyl sulfoxide to prepare 10 mM stock solutions and stored at 4 °C. Working solutions were prepared from these stocks at the desired concentrations (30 µM for preliminary studies and 0.01, 0.1, 1, 10, 25, and 50 µM for concentration–response studies) by dilution in complete culture medium immediately before each experiment.
Metabolic activity was assessed by quantifying the reduction of 3-(4,5-dimethylthiazol-2-yl)-2,5-diphenyltetrazolium bromide (MTT), according to a previously described procedure [17]. […] Absorbance was recorded at 570 nm using an xMark™ microplate reader (Bio-Rad, Hercules, CA, USA) using Microplate Manager 6.3 software. Cell viability was calculated as a percentage relative to untreated control cells.
Selectivity indices were determined as the ratio between IC50 values obtained in the NHDF cell line and those obtained in the corresponding tumor cell lines.

**Q.** `O=c1[nH]cc(F)c(=O)[nH]1` [5-FU, 5-fluorouracil] was tested. Which IC50 did it give?
**A.** 1710 nM
